Results reported in ChEMBL document CHEMBL4680147, “Discovery of 6'-chloro-N-methyl-5'-(phenylsulfonamido)-[3,3'-bipyridine]-5-carboxamide (CHMFL-PI4K-127) as a novel Plasmodium falciparum PI(4)K inhibitor with potent antimalarial activity against both blood and liver stages of Plasmodium” (Eur J Med Chem, 2020).
The source made the active and inactive calls. No cut-off for these calls is given here.

Tests used:
[1] = AUC(0 to infinity) in mouse at 1 mg/kg, iv; format: ADME, organism-based; set-up: time infinity, route intravenous, dose 1 mg/kg; conditions: in vivo
[2] = Cmax in Sprague-Dawley rat at 1 mg/kg, iv; format: ADME, organism-based; set-up: route intravenous, dose 1 mg/kg; conditions: in vivo
[3] = target: Phosphatidylinositol 4,5-bisphosphate 3-kinase catalytic subunit alpha isoform (Homo sapiens, UniProt P42336); assay: Inhibition of human PI3Kalpha by ADP-Glo kinase assay
[4] = tested on: Plasmodium falciparum; assay: Antimalarial activity against blood stage Plasmodium falciparum harboring PI4K Y1342I mutant infected in human O+ erythrocytes incubated for 72 hrs by SYBR Green 1 dye based fluorescence assay; format: functional, organism-based; conditions: Erythrocyte
[5] = AUC(0 to t) in mouse at 10 mg/kg, po; format: ADME, organism-based; set-up: dose 10 mg/kg; conditions: in vivo
[6] = Tmax in Sprague-Dawley rat at 10 mg/kg, po; format: ADME, organism-based; conditions: in vivo
[7] = tested on: Plasmodium yoelii; assay: Antimalarial activity against blood stage Plasmodium yoelii infected in BALB/c mouse assessed as suppression of parasitemia at 60 mg/kg/day, po administered for 7 consecutive days starting from 1 day post-infection and measured after cessation of drug treatment by Giemsa-staining based microscopic analysis; format: functional, organism-based; conditions: time 7.0 day
[8] = Selectivity index, ratio of IC50 for human PI4K3alpha to IC50 for recombinant His-tagged Plasmodium falciparum 3D7 PI4K expressed in baculovirus infected Sf9 cells
[9] = Mean residence time (0 to t) in Sprague-Dawley rat at 1 mg/kg, iv; format: ADME, organism-based; conditions: in vivo
[10] = Selectivity index, ratio of IC50 for human PI3Kgamma to IC50 for recombinant His-tagged Plasmodium falciparum 3D7 PI4K expressed in baculovirus infected Sf9 cells
[11] = target: Phosphatidylinositol 4-kinase beta (Homo sapiens, UniProt Q9UBF8); assay: Inhibition of human PI4K3beta by ADP-Glo kinase assay
[12] = AUC(0 to infinity) in mouse at 10 mg/kg, po; format: ADME, organism-based; set-up: route oral, time infinity, dose 10 mg/kg; conditions: in vivo
[13] = target: Phosphatidylinositol 4,5-bisphosphate 3-kinase catalytic subunit gamma isoform (Homo sapiens, UniProt P48736); assay: Inhibition of human PI3Kgamma by ADP-Glo kinase assay
[14] = Selectivity index, ratio of IC50 for human PI3Kdelta to IC50 for recombinant His-tagged Plasmodium falciparum 3D7 PI4K expressed in baculovirus infected Sf9 cells
[15] = Apparent volume of distribution in Sprague-Dawley rat at 10 mg/kg, po; format: ADME, organism-based; conditions: in vivo
[16] = Apparent clearance in mouse at 1 mg/kg, iv; format: ADME, organism-based; conditions: in vivo, read-out: CL(app) (converted)
[17] = Half life in Sprague-Dawley rat at 1 mg/kg, iv; format: ADME, organism-based; conditions: in vivo
[18] = Half life in mouse at 1 mg/kg, iv; format: ADME, organism-based; conditions: in vivo
[19] = Apparent volume of distribution in mouse at 10 mg/kg, po; format: ADME, organism-based; conditions: in vivo
[20] = Selectivity index, ratio of EC50 for antimalarial activity against Plasmodium falciparum harboring PI4K Y1342I/T1360A mutant infected in human O+ erythrocytes to EC50 for antimalarial activity against Plasmodium falciparum harboring PI4K Y1342I mutant infected in human O+ erythrocytes; format: functional
[21] = target: Phosphatidylinositol 4,5-bisphosphate 3-kinase catalytic subunit beta isoform (Homo sapiens, UniProt P42338); assay: Inhibition of human PI3Kbeta by ADP-Glo kinase assay
[22] = AUC(0 to t) in Sprague-Dawley rat at 1 mg/kg, iv; format: ADME, organism-based; set-up: dose 1 mg/kg; conditions: in vivo
[23] = Tmax in mouse at 1 mg/kg, iv; format: ADME, organism-based; conditions: in vivo
[24] = Tmax in mouse at 10 mg/kg, po; format: ADME, organism-based; conditions: in vivo
[25] = Mean residence time (0 to t) in Sprague-Dawley rat at 10 mg/kg, po; format: ADME, organism-based; conditions: in vivo
[26] = target: Phosphatidylinositol 4-phosphate 3-kinase C2 domain-containing subunit beta (Homo sapiens, UniProt O00750); assay: Inhibition of human PIK3C2beta by ADP-Glo kinase assay
[27] = Apparent clearance in Sprague-Dawley rat at 1 mg/kg, iv; format: ADME, organism-based; conditions: in vivo, read-out: CL(app) (converted)
[28] = tested on: Plasmodium yoelii; assay: Antimalarial activity against blood stage Plasmodium yoelii infected in BALB/c mouse assessed as suppression of parasitemia at 80 mg/kg/day, po administered for 7 consecutive days starting from 1 day post-infection and observed for 20 days by Giemsa-staining based microscopic analysis; format: functional; conditions: time 20 day
[29] = tested on: Plasmodium falciparum; assay: Antimalarial activity against artemisinin resistant Plasmodium falciparum 803 infected in human O+ erythrocytes incubated for 72 hrs by SYBR Green 1 dye based fluorescence assay; format: functional, organism-based; conditions: Plasmodium falciparum, 803, Erythrocyte
[30] = Cmax in mouse at 1 mg/kg, iv; format: ADME, organism-based; set-up: route intravenous, dose 1 mg/kg; conditions: in vivo
[31] = Mean residence time (0 to t) in mouse at 1 mg/kg, iv; format: ADME, organism-based; conditions: in vivo
[32] = tested on: Plasmodium falciparum; assay: Antimalarial activity against chloroquine resistant Plasmodium falciparum D10 infected in human O+ erythrocytes incubated for 72 hrs by SYBR Green 1 dye based fluorescence assay; format: functional, organism-based; conditions: D10, Erythrocyte
[33] = Oral bioavailability in mouse at 10 mg/kg; format: ADME, organism-based; conditions: in vivo
[34] = Apparent clearance in mouse at 10 mg/kg, po; format: ADME, organism-based; conditions: in vivo, read-out: CL(app) (converted)
[35] = Apparent volume of distribution in Sprague-Dawley rat at 1 mg/kg, iv; format: ADME, organism-based; conditions: in vivo, read-out: Vz
[36] = tested on: Plasmodium falciparum; assay: Antimalarial activity against blood stage Plasmodium falciparum harboring PI4K Y1342I/T1360A mutant infected in human O+ erythrocytes incubated for 72 hrs by SYBR Green 1 dye based fluorescence assay; format: functional, organism-based; conditions: Erythrocyte
[37] = tested on: Plasmodium falciparum; assay: Antimalarial activity against pyrimethamine/chloroquine resistant Plasmodium falciparum C2A infected in human O+ erythrocytes incubated for 72 hrs by SYBR Green 1 dye based fluorescence assay; format: functional, organism-based; conditions: Erythrocyte
[38] = Selectivity index, ratio of EC50 for antimalarial activity against wild type Plasmodium falciparum infected in human O+ erythrocytes to EC50 for antimalarial activity against Plasmodium falciparum harboring PI4K Y1342I mutant infected in human O+ erythrocytes; format: functional, Erythrocyte
[39] = Tmax in Sprague-Dawley rat at 1 mg/kg, iv; format: ADME, organism-based; conditions: in vivo
[40] = tested on: Plasmodium yoelii; assay: Antimalarial activity against blood stage Plasmodium yoelii infected in BALB/c mouse assessed as suppression of parasitemia at 60 mg/kg/day, po administered for 7 consecutive days starting from 1 day post-infection and observed for 20 days by Giemsa-staining based microscopic analysis; format: functional, organism-based; conditions: time 20.0 day
[41] = Oral bioavailability in Sprague-Dawley rat at 10 mg/kg; format: ADME, organism-based; conditions: in vivo
[42] = AUC(0 to infinity) in Sprague-Dawley rat at 1 mg/kg, iv; format: ADME, organism-based; set-up: time infinity, route intravenous, dose 1 mg/kg; conditions: in vivo
[43] = target: Phosphatidylinositol 3-kinase catalytic subunit type 3 (Homo sapiens, UniProt Q8NEB9); assay: Inhibition of human VPS34 by ADP-Glo kinase assay
Sequence of Phosphatidylinositol 3-kinase catalytic subunit type 3 (Q8NEB9 whole entry): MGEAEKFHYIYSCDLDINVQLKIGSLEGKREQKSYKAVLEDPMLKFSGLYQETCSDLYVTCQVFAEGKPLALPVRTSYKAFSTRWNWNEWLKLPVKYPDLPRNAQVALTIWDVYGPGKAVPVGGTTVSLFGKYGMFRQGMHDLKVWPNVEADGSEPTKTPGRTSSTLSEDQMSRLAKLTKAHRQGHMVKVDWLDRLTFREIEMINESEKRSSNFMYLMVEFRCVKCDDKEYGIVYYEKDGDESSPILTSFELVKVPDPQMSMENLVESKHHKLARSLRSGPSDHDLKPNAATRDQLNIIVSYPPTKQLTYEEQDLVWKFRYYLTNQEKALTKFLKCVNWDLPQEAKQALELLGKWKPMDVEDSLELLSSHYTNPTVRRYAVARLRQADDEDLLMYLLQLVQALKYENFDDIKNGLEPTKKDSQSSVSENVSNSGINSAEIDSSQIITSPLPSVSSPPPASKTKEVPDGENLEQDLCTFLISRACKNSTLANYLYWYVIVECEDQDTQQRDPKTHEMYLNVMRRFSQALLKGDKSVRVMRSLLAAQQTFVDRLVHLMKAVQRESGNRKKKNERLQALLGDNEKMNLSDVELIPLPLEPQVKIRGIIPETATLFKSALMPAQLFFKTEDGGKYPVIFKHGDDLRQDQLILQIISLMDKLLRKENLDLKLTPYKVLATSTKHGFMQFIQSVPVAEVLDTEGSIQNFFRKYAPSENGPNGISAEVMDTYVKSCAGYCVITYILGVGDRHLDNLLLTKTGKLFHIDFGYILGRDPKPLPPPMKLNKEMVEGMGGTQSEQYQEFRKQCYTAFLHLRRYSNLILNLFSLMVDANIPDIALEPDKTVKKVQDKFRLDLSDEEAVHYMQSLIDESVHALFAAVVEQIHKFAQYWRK

Sequence of Phosphatidylinositol 4,5-bisphosphate 3-kinase catalytic subunit beta isoform (P42338 whole entry, canonical isoform): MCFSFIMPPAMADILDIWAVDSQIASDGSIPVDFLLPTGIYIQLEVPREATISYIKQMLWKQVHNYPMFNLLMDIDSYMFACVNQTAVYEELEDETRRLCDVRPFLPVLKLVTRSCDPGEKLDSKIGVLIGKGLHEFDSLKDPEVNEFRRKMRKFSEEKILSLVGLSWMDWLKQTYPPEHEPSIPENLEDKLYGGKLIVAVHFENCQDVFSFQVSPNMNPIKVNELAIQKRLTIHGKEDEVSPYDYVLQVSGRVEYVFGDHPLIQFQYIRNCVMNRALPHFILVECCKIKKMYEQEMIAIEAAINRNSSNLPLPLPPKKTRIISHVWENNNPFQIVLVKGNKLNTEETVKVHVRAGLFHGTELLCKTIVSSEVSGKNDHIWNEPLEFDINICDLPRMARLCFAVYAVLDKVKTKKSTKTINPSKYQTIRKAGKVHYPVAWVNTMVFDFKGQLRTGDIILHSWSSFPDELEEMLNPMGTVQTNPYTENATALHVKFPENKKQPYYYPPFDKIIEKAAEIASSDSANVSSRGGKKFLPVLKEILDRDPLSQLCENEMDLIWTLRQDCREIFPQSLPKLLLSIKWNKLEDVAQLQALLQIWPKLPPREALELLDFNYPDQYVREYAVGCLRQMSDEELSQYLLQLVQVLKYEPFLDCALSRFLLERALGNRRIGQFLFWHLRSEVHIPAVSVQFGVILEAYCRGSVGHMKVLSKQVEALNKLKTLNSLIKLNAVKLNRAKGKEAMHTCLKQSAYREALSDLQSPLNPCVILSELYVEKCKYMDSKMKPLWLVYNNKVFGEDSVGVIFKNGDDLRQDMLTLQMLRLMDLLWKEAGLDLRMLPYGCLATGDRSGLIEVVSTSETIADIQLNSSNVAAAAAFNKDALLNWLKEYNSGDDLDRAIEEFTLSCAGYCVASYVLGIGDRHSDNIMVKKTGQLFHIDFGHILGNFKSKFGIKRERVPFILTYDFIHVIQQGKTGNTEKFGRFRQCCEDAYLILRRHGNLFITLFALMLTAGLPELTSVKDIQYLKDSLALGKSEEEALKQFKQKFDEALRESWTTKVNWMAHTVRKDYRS
Sequence of Phosphatidylinositol 4-kinase beta (Q9UBF8 whole entry): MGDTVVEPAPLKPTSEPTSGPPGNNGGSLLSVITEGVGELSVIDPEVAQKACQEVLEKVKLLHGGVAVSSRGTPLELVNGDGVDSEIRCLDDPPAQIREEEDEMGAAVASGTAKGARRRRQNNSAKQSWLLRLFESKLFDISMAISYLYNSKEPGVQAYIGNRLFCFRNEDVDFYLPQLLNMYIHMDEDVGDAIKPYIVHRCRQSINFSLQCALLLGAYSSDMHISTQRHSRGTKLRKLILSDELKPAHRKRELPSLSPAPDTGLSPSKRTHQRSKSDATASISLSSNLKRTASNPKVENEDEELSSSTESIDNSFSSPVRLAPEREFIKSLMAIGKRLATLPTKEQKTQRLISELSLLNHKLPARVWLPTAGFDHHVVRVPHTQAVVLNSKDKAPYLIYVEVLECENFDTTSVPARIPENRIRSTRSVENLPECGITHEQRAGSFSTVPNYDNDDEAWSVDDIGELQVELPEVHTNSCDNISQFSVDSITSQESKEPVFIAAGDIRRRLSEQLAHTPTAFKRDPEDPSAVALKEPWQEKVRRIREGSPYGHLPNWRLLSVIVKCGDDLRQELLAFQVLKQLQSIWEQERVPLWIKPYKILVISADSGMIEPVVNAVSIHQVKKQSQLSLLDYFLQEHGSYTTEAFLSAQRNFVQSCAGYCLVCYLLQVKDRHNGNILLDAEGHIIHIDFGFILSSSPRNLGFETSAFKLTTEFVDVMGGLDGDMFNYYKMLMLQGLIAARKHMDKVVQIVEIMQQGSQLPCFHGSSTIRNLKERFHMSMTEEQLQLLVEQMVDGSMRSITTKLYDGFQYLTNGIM
Sequence of Phosphatidylinositol 4-phosphate 3-kinase C2 domain-containing subunit beta (O00750 whole entry, the tested form may be a part): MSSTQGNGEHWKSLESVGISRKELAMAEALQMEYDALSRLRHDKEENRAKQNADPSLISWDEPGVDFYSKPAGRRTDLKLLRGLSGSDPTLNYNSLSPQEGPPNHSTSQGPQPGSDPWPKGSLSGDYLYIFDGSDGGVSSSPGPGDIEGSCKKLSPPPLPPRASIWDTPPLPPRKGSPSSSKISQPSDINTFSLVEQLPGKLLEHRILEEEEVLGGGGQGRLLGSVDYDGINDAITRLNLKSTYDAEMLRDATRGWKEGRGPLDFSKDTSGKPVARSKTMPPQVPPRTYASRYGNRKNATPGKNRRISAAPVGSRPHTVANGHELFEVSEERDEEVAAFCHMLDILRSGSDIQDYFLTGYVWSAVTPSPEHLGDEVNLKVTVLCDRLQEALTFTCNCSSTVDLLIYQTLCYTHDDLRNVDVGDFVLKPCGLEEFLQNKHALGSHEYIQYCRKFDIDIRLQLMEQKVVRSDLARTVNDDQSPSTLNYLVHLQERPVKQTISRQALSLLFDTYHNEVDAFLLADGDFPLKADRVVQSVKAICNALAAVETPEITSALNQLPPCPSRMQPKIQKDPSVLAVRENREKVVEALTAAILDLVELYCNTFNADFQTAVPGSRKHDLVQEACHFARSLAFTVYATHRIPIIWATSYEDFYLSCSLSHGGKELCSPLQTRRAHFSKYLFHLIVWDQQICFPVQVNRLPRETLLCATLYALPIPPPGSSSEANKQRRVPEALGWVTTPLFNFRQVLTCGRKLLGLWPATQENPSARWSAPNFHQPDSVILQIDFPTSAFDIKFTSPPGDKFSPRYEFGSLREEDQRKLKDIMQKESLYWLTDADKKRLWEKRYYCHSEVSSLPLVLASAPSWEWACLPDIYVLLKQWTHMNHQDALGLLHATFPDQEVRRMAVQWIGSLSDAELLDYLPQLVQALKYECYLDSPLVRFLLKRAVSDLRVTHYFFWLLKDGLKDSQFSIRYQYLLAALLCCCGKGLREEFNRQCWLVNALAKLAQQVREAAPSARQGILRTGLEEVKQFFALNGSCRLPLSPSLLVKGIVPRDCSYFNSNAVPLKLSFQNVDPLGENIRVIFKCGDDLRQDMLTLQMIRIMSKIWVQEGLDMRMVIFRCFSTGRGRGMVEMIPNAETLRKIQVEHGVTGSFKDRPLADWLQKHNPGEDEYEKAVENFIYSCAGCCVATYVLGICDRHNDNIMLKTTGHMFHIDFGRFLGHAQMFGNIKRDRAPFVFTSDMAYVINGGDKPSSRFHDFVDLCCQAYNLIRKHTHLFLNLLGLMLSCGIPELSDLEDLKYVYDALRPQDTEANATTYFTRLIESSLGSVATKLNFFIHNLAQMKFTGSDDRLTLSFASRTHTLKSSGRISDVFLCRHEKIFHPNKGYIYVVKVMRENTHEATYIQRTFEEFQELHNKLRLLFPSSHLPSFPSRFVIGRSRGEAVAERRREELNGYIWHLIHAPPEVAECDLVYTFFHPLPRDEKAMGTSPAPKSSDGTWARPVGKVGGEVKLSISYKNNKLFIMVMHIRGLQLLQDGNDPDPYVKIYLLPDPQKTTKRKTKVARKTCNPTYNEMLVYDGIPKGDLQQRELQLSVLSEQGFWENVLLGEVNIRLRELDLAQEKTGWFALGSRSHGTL

Structure (SMILES): CNC(=O)c1cncc(-c2cnc(Cl)c(NS(=O)(=O)c3ccccc3)c2)c1
- AUC(0-inf) [1]: 0.292 µg·h/mL
- Cmax [2]: 5.01 µg/mL
- IC50 [3]: 0.191 µM
- EC50 [4]: 0.0102 µM
- AUC(0-t) [5]: 2.63 µg·h/mL
- Tmax [6]: 0.83 h
- Activity [7]: inactive
- Ratio IC50 [8]: 100
- MRT last [9]: 1 h
- Ratio IC50 [10]: 100
- IC50 [11]: 0.433 µM
- AUC(0-inf) [12]: 2.38 µg·h/mL
- IC50 [13]: 0.324 µM
- Ratio IC50 [14]: 100
- Vz [15]: 2.2 L/kg
- clearance [16]: 3.1 L/h/kg
- half-life [17]: 3.5 h
- half-life [18]: 2.7 h
- Vz [19]: 20.2 L/kg
- Ratio EC50 [20]: 24
- IC50 [21]: 0.392 µM
- AUC(0-t) [22]: 2.16 µg·h/mL
- Tmax [23]: 1.8 min
- Tmax [24]: 0.19 h
- MRT last [25]: 4.3 h
- IC50 [26]: > 10 µM
- clearance [27]: 0.5 L/h/kg
- Activity [28]: 100%
- EC50 [29]: 0.0309 µM
- Cmax [30]: 0.718 µg/mL
- MRT last [31]: 3.1 h
- EC50 [32]: 0.028 µM
- bioavailability [33]: 80%
- CL/F [34]: 3.9 L/h/kg
- Vd [35]: 2.6 L/kg
- EC50 [36]: 0.248 µM
- EC50 [37]: 0.028 µM
- Ratio EC50 [38]: 2
- Tmax [39]: 1.2 min
- Activity [40]: Active
- bioavailability [41]: 89%
- AUC(0-inf) [42]: 2.17 µg·h/mL
- IC50 [43]: 0.681 µM
